Patent US11440884B2, “Compounds, salts thereof and methods for treatment of diseases” (ACADIA PHARMACEUTICALS INC., priority 2017, dated 2022)
Read-outs that look alike come from different tables or passages of the source.

Biological target: 5-HT2A receptor (Homo sapiens (Human), UniProt P28223)
Assay: Receptor Selection and Amplification (R-SAT) functional antagonist assay;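 also: Read-out is β-galactosidase marker gene activity with ONPG substrate, measured after five days of growth in 96-well plates holding the test compound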
[1] = R-SAT, transfected NIH3T3 cells, guidance: high affinity pKi≥8.4, moderate affinity pKi≥7.7

Chain of 5-HT2A receptor (P28223 whole entry): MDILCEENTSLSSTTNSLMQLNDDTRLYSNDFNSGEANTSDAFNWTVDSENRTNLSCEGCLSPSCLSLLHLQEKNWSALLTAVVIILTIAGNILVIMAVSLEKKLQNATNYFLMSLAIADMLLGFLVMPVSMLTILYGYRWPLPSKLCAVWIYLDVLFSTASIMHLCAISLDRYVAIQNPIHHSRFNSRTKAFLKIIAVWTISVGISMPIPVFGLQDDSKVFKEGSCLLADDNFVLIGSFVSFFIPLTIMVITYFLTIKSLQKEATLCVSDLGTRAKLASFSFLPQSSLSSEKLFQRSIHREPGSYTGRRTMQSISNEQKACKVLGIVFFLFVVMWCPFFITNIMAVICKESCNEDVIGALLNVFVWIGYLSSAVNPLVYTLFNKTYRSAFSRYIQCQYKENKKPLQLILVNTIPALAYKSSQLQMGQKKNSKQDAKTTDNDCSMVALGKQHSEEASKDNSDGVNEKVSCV
Experimental: Receptor Selection and Amplification (R-SAT) Assays. […] For large-scale transfections, cells were transfected for 12-16 h, then trypsinized and frozen in DMSO. Frozen cells were later thawed, plated at 10,000-40,000 cells per well of a 96 well plate that contained a compound according to Formula (I). […] With both methods, cells were then grown in a humidified atmosphere with 5% ambient CO2 for five days. Media was then removed from the plates and marker gene activity was measured by the addition of the b-galactosidase substrate o-nitrophenyl b-D-galactopyranoside (ONPG, in PBS with 5% NP-40). […] All data were analyzed using the computer program XLFit (IDBSm).

Row | SMILES | 5-HT2a pKi [1] | other results
1 | CC(C)Oc1ccc(COC(=O)N(Cc2c(F)cc(Cl)cc2F)C2CCN(C)CC2)cc1 [Compound 74] | 9.1 | –
2 | COc1cc(CN(C(=O)OCc2ccc(OC(C)C)cc2)C2CCN(C)CC2)ccc1Cl.O=C(O)C(F)(F)F [Compound 75] | 6.8 | –
3 | CC(C)Oc1ccc(COC(=O)N(Cc2ccc(C(F)(F)F)cc2Cl)C2CCN(C)CC2)cc1.O=C(O)C(F)(F)F [Compound 78] | – | 5-HT2a pKi: 7.6
4 | CC(C)Oc1ccc(COC(=O)N(Cc2ccc(C(F)(F)F)cc2F)C2CCN(C)CC2)cc1.O=C(O)C(F)(F)F [Compound 79] | 8.4 | –
5 | CC(C)Oc1ccc(COC(=O)N(Cc2ccc(F)cc2C(F)(F)F)C2CCN(C)CC2)cc1 [Compound 81] | – | Ki: 2000 µM

Now from value to molecule, other results behind:

Row | 5-HT2a pKi [1] | SMILES | other results
6 | 7.8 | CC(C)Oc1ccc(COC(=O)N(Cc2cc(F)c(F)cc2F)C2CCN(C)CC2)cc1 [Compound 80] | –
7 | 7.8 | CC(C)COc1ccc(COC(=O)N(Cc2ccc(F)cc2O)C2CCN(C)CC2)cc1 [Compound 82, [4-(2-methylpropoxy)phenyl]methyl N-[(4-fluoro-2-hydroxyphenyl)methyl]-N-(1-methylpiperidin-4-yl)carbamate] | –
